Assay results: patent US5288706A, “Medicament for prevention and remedy of diseases of the pancreas and others” (Mitsui Toatsu Chemicals, Incorporated, priority 1987, dated 1994)
Read-outs that look alike come from different tables or passages of the source. Non-standard residues stand in square brackets, D forms with d. Residues, ends and D or L forms follow the SMILES beside them. pGlu = O=C1CC[C@@H](C(=O)O)N1

Key:
[1] = tested on: Wister rats; conditions: rat, in vivo, sc, 30 mg/kg
Protocol: (§1) Thus, the medicament of the present invention is a safe medicament of extremely low toxicity and can be administered for a long period of time.
No toxicity was observed when 30 mg/kg of FTS as the effective ingredient wa subcutaneously administered for consecutive 21 days to a group of ten Wister rats of 5 weeks old.

[2] = tested on: ddy male mice; conditions: mouse, in vivo, sc
Protocol: as §1
No toxicity was observed when 50 mg/kg and 100 mg/kg of FTS as the effective ingredient were subcutaneously administered for consecutive 14 days to a group of five ddy male mice of 5 weeks old.

C[C@H](NC(=O)[C@@H]1CCC(=O)N1)C(=O)N[C@@H](CCCCN)C(=O)N[C@@H](CO)C(=O)N[C@@H](CCC(N)=O)C(=O)NCC(=O)NCC(=O)N[C@@H](CO)C(=O)N[C@@H](CC(N)=O)C(=O)O [FTS, pGlu-Ala-Lys-Ser-Gln-Gly-Gly-Ser-Asn] ([pGlu]AKSQGGSN-OH)
toxicity [1]: No toxicity | toxicity (external behavior observation, biochemical diagnosis of sera, pathological anatomy) [1]: no abnormal symptom | toxicity ([2]; 50 mg/kg): No toxicity | toxicity ([2]; 100 mg/kg): No toxicity
